Laboratory results from the CheMixHub ionic liquid set.

Test: xn = mol fraction of the nth substance listed
Settings: 101 kPa

Cc1ncc(C[n+]2csc(CCO)c2C)c(N)n1.Cl.[Cl-] + CCCCCCCCCCCCOS(=O)(=O)[O-].[Na+] + O
electrical conductivity [S/m]
Settings | 288.15 K | 298.15 K
x2 = 0, x1 = 1.8e-07 | 0.00237 | 0.00291
x2 = 0, x1 = 9e-07 | 0.0045 | 0.00489
x2 = 0, x1 = 1.8e-06 | 0.00578 | 0.00788
x2 = 7.35e-06, x1 = 1.8e-07 | 0.00538 | 0.00635
x2 = 7.35e-06, x1 = 9e-07 | 0.0077 | 0.00839
x2 = 7.35e-06, x1 = 1.8e-06 | 0.00928 | 0.0119
x2 = 1.463e-05, x1 = 1.8e-07 | 0.00837 | 0.0099
x2 = 1.463e-05, x1 = 9e-07 | 0.0109 | 0.0118
x2 = 1.463e-05, x1 = 1.8e-06 | 0.0127 | 0.0158
x2 = 2.18e-05, x1 = 1.8e-07 | 0.0112 | 0.0131
x2 = 2.18e-05, x1 = 9e-07 | 0.0139 | 0.0152
x2 = 2.18e-05, x1 = 1.8e-06 | 0.016 | 0.0196
x2 = 2.901e-05, x1 = 1.8e-07 | 0.0139 | 0.0163
x2 = 2.901e-05, x1 = 9e-07 | 0.0169 | 0.0186
x2 = 2.901e-05, x1 = 1.8e-06 | 0.0192 | 0.0233
x2 = 3.604e-05, x1 = 1.8e-07 | 0.0167 | 0.0196
x2 = 3.604e-05, x1 = 9e-07 | 0.0197 | 0.0219
x2 = 3.604e-05, x1 = 1.8e-06 | 0.0224 | 0.027
x2 = 4.307e-05, x1 = 1.8e-07 | 0.0194 | 0.0228
x2 = 4.307e-05, x1 = 9e-07 | 0.0225 | 0.0251
x2 = 4.307e-05, x1 = 1.8e-06 | 0.0255 | 0.0308
x2 = 4.991e-05, x1 = 1.8e-07 | 0.0221 | 0.026
x2 = 4.991e-05, x1 = 9e-07 | 0.0253 | 0.0282
x2 = 4.991e-05, x1 = 1.8e-06 | 0.0285 | 0.0347
x2 = 5.676e-05, x1 = 1.8e-07 | 0.0248 | 0.0292
x2 = 5.676e-05, x1 = 9e-07 | 0.0281 | 0.0312
x2 = 5.676e-05, x1 = 1.8e-06 | 0.0314 | 0.0384
x2 = 6.361e-05, x1 = 1.8e-07 | 0.0274 | 0.0323
x2 = 6.361e-05, x1 = 9e-07 | 0.0307 | 0.0342
x2 = 6.361e-05, x1 = 1.8e-06 | 0.0342 | 0.0421
x2 = 7.027e-05, x1 = 1.8e-07 | 0.0299 | 0.0354
x2 = 7.027e-05, x1 = 9e-07 | 0.0332 | 0.0372
x2 = 7.028e-05, x1 = 1.8e-06 | 0.037 | 0.0457
x2 = 7.694e-05, x1 = 1.8e-07 | 0.0324 | 0.0385
x2 = 7.694e-05, x1 = 9e-07 | 0.0357 | 0.0402
x2 = 7.694e-05, x1 = 1.8e-06 | 0.0397 | 0.0492
x2 = 8.361e-05, x1 = 1.8e-07 | 0.0349 | 0.0414
x2 = 8.361e-05, x1 = 9e-07 | 0.0382 | 0.0431
x2 = 8.361e-05, x1 = 1.8e-06 | 0.0425 | 0.0526
x2 = 9.009e-05, x1 = 1.8e-07 | 0.0374 | 0.0443
x2 = 9.009e-05, x1 = 9e-07 | 0.0407 | 0.046
x2 = 9.009e-05, x1 = 1.8e-06 | 0.0452 | 0.0557
x2 = 9.658e-05, x1 = 1.8e-07 | 0.0398 | 0.0471
x2 = 9.658e-05, x1 = 9e-07 | 0.0431 | 0.0489
x2 = 9.658e-05, x1 = 1.8e-06 | 0.0478 | 0.0587
x2 = 0.0001031, x1 = 1.8e-07 | 0.0422 | 0.0498
x2 = 0.0001031, x1 = 9e-07 | 0.0456 | 0.0518
x2 = 0.0001031, x1 = 1.8e-06 | 0.0503 | 0.0616
x2 = 0.0001094, x1 = 1.8e-07 | 0.0446 | 0.0524
x2 = 0.0001094, x1 = 9e-07 | 0.048 | 0.0545
x2 = 0.0001094, x1 = 1.8e-06 | 0.0522 | 0.0643
x2 = 0.0001157, x1 = 1.8e-07 | 0.0465 | 0.0549
x2 = 0.0001157, x1 = 9e-07 | 0.0502 | 0.0571
x2 = 0.0001157, x1 = 1.8e-06 | 0.0539 | 0.0668
x2 = 0.000122, x1 = 1.8e-07 | 0.0486 | 0.0574
x2 = 0.000122, x1 = 9e-07 | 0.0523 | 0.0595
x2 = 0.000122, x1 = 1.8e-06 | 0.0555 | 0.0691
x2 = 0.0001281, x1 = 1.8e-07 | 0.0508 | 0.0597
x2 = 0.0001281, x1 = 9e-07 | 0.0541 | 0.0615
x2 = 0.0001281, x1 = 1.8e-06 | 0.0571 | 0.0712
x2 = 0.0001342, x1 = 1.8e-07 | 0.0527 | 0.0619
x2 = 0.0001342, x1 = 9e-07 | 0.0558 | 0.0635
x2 = 0.0001342, x1 = 1.8e-06 | 0.0587 | 0.0732
x2 = 0.0001404, x1 = 1.8e-07 | 0.0545 | 0.0639
x2 = 0.0001404, x1 = 9e-07 | 0.0573 | 0.0653
x2 = 0.0001404, x1 = 1.8e-06 | 0.0601 | 0.0751
x2 = 0.0001465, x1 = 1.8e-07 | 0.0561 | 0.0656
x2 = 0.0001465, x1 = 9e-07 | 0.0587 | 0.0669
x2 = 0.0001465, x1 = 1.8e-06 | 0.0614 | 0.077
x2 = 0.0001524, x1 = 1.8e-07 | 0.0577 | 0.0672
x2 = 0.0001524, x1 = 9e-07 | 0.0599 | 0.0685
x2 = 0.0001524, x1 = 1.8e-06 | 0.0625 | 0.0789
x2 = 0.0001584, x1 = 1.8e-07 | 0.059 | 0.0687
x2 = 0.0001584, x1 = 9e-07 | 0.0611 | 0.0699
x2 = 0.0001584, x1 = 1.8e-06 | 0.0636 | 0.0807
x2 = 0.0001641, x1 = 1.8e-07 | 0.0602 | 0.07
x2 = 0.0001641, x1 = 9e-07 | 0.0622 | 0.0712
x2 = 0.0001641, x1 = 1.8e-06 | 0.0647 | 0.0825
x2 = 0.0001699, x1 = 1.8e-07 | 0.0613 | 0.0712
x2 = 0.0001699, x1 = 9e-07 | 0.0633 | 0.0724
x2 = 0.0001699, x1 = 1.8e-06 | 0.0657 | 0.0842
x2 = 0.0001757, x1 = 1.8e-07 | 0.0622 | 0.0724
x2 = 0.0001757, x1 = 9e-07 | 0.0643 | 0.0736
x2 = 0.0001757, x1 = 1.8e-06 | 0.0667 | 0.0857
x2 = 0.0001814, x1 = 1.8e-07 | 0.0632 | 0.0735
x2 = 0.0001814, x1 = 9e-07 | 0.0654 | 0.0748
x2 = 0.0001814, x1 = 1.8e-06 | 0.0677 | 0.0872
x2 = 0.000187, x1 = 1.8e-07 | 0.0641 | 0.0745
x2 = 0.000187, x1 = 9e-07 | 0.0664 | 0.076
x2 = 0.000187, x1 = 1.8e-06 | 0.0687 | 0.0885
x2 = 0.0001928, x1 = 1.8e-07 | 0.0649 | 0.0755
x2 = 0.0001928, x1 = 9e-07 | 0.0673 | 0.0771
x2 = 0.0001928, x1 = 1.8e-06 | 0.0697 | 0.0898
x2 = 0.0001982, x1 = 1.8e-07 | 0.0658 | 0.0765
x2 = 0.0001982, x1 = 9e-07 | 0.0683 | 0.0782
x2 = 0.0001982, x1 = 1.8e-06 | 0.0707 | 0.0911
x2 = 0.0002038, x1 = 1.8e-07 | 0.0666 | 0.0775
x2 = 0.0002038, x1 = 9e-07 | 0.0692 | 0.0794
x2 = 0.0002038, x1 = 1.8e-06 | 0.0716 | 0.0924
x2 = 0.0002092, x1 = 1.8e-07 | 0.0673 | 0.0784
x2 = 0.0002092, x1 = 9e-07 | 0.0702 | 0.0805
x2 = 0.0002092, x1 = 1.8e-06 | 0.0725 | 0.0937
x2 = 0.0002147, x1 = 1.8e-07 | 0.0681 | 0.0793
x2 = 0.0002148, x1 = 9e-07 | 0.0711 | 0.0816
x2 = 0.0002148, x1 = 1.8e-06 | 0.0734 | 0.0949
x2 = 0.00022, x1 = 1.8e-07 | 0.0689 | 0.0802
x2 = 0.00022, x1 = 9e-07 | 0.072 | 0.0826
x2 = 0.00022, x1 = 1.8e-06 | 0.0743 | 0.0961
x2 = 0.0002254, x1 = 1.8e-07 | 0.0696 | 0.081
x2 = 0.0002254, x1 = 9e-07 | 0.0729 | 0.0837
x2 = 0.0002254, x1 = 1.8e-06 | 0.0752 | 0.0973
x2 = 0.0002306, x1 = 1.8e-07 | 0.0703 | 0.0819
x2 = 0.0002306, x1 = 9e-07 | 0.0739 | 0.0848
x2 = 0.0002306, x1 = 1.8e-06 | 0.0761 | 0.0983
x2 = 0.0002358, x1 = 1.8e-07 | 0.071 | 0.0827
x2 = 0.0002358, x1 = 9e-07 | 0.0747 | 0.0858
x2 = 0.0002358, x1 = 1.8e-06 | 0.077 | 0.0993
x2 = 0.0002411, x1 = 1.8e-07 | 0.0717 | 0.0836
x2 = 0.0002411, x1 = 9e-07 | 0.0756 | 0.0869
x2 = 0.0002411, x1 = 1.8e-06 | 0.0778 | 0.1
